Test results taken from PubChem BioAssay AID651650 (Sanford-Burnham Center for Chemical Genomics, 2012).
The source made the active and inactive calls.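 Rule for the calls: active = mean IC50 below 20 µM in each of the two panels, so potent in both; inactive = the rest.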

Molecular target: Neuropilin-1 (Homo sapiens) (UniProt O14786)
Test: NRP-1 b1b2 CendR peptide binding inhibitors, dose response, biochemical, FP and AlphaScreen panel (AID 651650)
Settings: NRP-1 b1b2 / RPARPAR peptide binding, FP or AlphaScreen
[1] = AlphaScreen, run 1, individual panel run IC50
[2] = FP, run 1, individual panel run IC50
[3] = FP, run 2, individual panel run IC50

Sequence of Neuropilin-1 (Homo sapiens) (O14786 whole entry, looked up): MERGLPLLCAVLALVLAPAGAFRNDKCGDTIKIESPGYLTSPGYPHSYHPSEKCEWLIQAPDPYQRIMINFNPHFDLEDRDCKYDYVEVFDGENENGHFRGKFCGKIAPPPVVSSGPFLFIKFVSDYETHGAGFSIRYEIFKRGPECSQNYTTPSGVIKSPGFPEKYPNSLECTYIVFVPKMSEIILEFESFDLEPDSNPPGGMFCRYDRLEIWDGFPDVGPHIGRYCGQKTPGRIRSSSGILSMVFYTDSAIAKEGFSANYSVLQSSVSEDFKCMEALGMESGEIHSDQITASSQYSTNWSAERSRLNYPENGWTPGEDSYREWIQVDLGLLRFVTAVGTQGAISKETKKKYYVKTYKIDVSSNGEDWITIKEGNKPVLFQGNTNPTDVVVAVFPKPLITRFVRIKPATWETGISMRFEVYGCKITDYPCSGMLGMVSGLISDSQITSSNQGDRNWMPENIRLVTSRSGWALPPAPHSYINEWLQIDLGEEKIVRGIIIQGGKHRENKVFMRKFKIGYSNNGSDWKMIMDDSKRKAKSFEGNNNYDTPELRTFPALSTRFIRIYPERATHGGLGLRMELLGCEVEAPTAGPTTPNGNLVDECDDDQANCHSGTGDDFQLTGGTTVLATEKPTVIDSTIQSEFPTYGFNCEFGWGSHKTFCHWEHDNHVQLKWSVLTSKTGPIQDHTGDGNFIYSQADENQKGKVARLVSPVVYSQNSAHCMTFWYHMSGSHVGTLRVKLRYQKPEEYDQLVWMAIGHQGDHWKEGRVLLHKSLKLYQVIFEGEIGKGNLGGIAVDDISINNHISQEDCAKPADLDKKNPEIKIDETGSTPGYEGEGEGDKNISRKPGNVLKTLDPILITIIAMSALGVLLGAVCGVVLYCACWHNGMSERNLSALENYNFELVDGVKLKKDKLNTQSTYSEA

Row | SMILES | IC50 (AlphaScreen, mean of runs) | IC50 [1] [µM] | IC50 (FP, mean of runs) | IC50 [2] [µM] | IC50 [3] [µM]
1 | CC(=O)c1cccc(S(=O)(=O)N2CCC(C(=O)O)(c3ccccc3)CC2)c1 | > 100 µM (inactive) | > 100 | > 95 µM (inactive) | > 95 | > 95
2 | O=C1CCCN1CCCNc1nc(NCc2cccs2)nc2ccsc12 | inactive | 28 | > 95 µM (inactive) | > 95 | > 95
3 | CCCCOc1ccc(C(=O)N/C(=C/C=C/c2ccccc2)C(=O)NCCCO)cc1 | > 100 µM (inactive) | > 100 | > 95 µM (inactive) | > 95 | > 95
4 | CC1(C)c2ccccc2C(=O)c2ccccc21 | > 100 µM (inactive) | > 100 | > 95 µM (inactive) | > 95 | > 95
5 | CC(C)(C)OC(=O)N1CCC(NC(=O)c2nc[nH]c2C(=O)N2CCc3ccccc3C2)CC1 | > 100 µM (inactive) | > 100 | > 95 µM (inactive) | > 95 | > 95
6 | CCOC(=O)Cc1cnc(NC(=O)NC(C(=O)OCC)(c2ccccc2)C(F)(F)F)s1 (stereo not given) | inactive | 25.1 | > 95 µM (inactive) | > 95 | > 95
7 | CCOC(=O)/C=C/COc1ccccc1[N+](=O)[O-] | > 100 µM (inactive) | > 100 | > 95 µM (inactive) | > 95 | > 95
8 | CSc1nc2ccccc2c(=O)n1C1CCOC(C)(C)C1 (stereo not given) | > 100 µM (inactive) | > 100 | > 95 µM (inactive) | > 95 | > 95
9 | C=CCOc1c(CNc2ncn[nH]2)cccc1OCC | > 100 µM (inactive) | > 100 | 9.9 µM | 9.93 | > 95
10 | Fc1cnc(N2CCOCC2)nc1N1CCOCC1 | > 100 µM (inactive) | > 100 | > 95 µM (inactive) | > 95 | > 95
11 | CN1C(=O)c2oc3ccccc3c(=O)c2C1c1ccccn1 (stereo not given) | inactive | 34.9 | inactive | 25.1 | 21.4
12 | COc1ccc(-c2noc(CN(C(=O)c3ccc4c(c3)OCO4)C(C)C)n2)cc1 | > 100 µM (inactive) | > 100 | > 95 µM (inactive) | > 95 | > 95
13 | CC(C)(C)n1cnc2cc(NC(=O)c3ccccc3)ccc21 | 17 µM | 17 | > 95 µM (inactive) | > 95 | > 95
14 | COC(=O)[C@@]1(Cc2ccc(OC)cc2)[C@H]2c3cc(C(=O)N4CCCC4)n(CCN4CCOCC4)c3C[C@H]2CN1C(=O)c1ccccc1 | > 100 µM (inactive) | > 100 | > 95 µM (inactive) | > 95 | > 95
15 | O=C(NCCCN1CCOCC1)c1ccc2c(=O)n(-c3ccc(F)c(Cl)c3)c(=S)[nH]c2c1 | > 100 µM (inactive) | > 100 | > 95 µM (inactive) | > 95 | > 95
16 | COC(=O)C1=C(c2cccc(C#N)c2)C[C@@H]2CC[C@H]1N2C(=O)NCCO | > 100 µM (inactive) | > 100 | > 95 µM (inactive) | > 95 | > 95
17 | Cc1cc(C)n(-c2nnc3n2N=C(c2c[nH]c4ccccc24)CS3)n1 | > 100 µM (inactive) | > 100 | > 95 µM (inactive) | > 95 | > 95
18 | COc1cc2oc(=O)ccc2cc1[C@@H](O)[C@@H]1OC(C)(C)OC1(C)C | > 100 µM (inactive) | > 100 | > 95 µM (inactive) | > 95 | > 95
